Source: the NIST ThermoML archive (doi:10.1021/acs.jced.8b00601)
Numbers after ± are expanded uncertainties.

Assay: activity coefficient (dimensionless); of the first substance listed, at infinite dilution; xn = mol fraction of the nth substance listed
Conditions: 101.33 kPa, Liquid, Chromatography, x1 = 0

Row | SMILES | activity coefficient (313 K) | activity coefficient (323 K) | activity coefficient (333 K) | activity coefficient (343 K)
1 | ClCCCl [1,2-dichloroethane] + O=S(=O)([N-]S(=O)(=O)C(F)(F)F)C(F)(F)F.O=S(=O)([N-]S(=O)(=O)C(F)(F)F)C(F)(F)F.O=S(=O)([N-]S(=O)(=O)C(F)(F)F)C(F)(F)F.c1ccc2cc(-n3cc[n+](Cc4cc(C[n+]5ccn(-c6ccc7ccccc7c6)c5)cc(C[n+]5ccn(-c6ccc7ccccc7c6)c5)c4)c3)ccc2c1 | 0.758 ± 0.079 | 0.738 ± 0.077 | 0.677 ± 0.071 | 0.679 ± 0.071
2 | Cc1ccccc1C [1,2-dimethylbenzene] + O=S(=O)([N-]S(=O)(=O)C(F)(F)F)C(F)(F)F.O=S(=O)([N-]S(=O)(=O)C(F)(F)F)C(F)(F)F.O=S(=O)([N-]S(=O)(=O)C(F)(F)F)C(F)(F)F.c1ccc2cc(-n3cc[n+](Cc4cc(C[n+]5ccn(-c6ccc7ccccc7c6)c5)cc(C[n+]5ccn(-c6ccc7ccccc7c6)c5)c4)c3)ccc2c1 | 3.35 ± 0.41 | 2.25 ± 0.3 | 1.54 ± 0.2 | 1.04 ± 0.14
3 | Cc1cccc(C)c1 [1,3-dimethylbenzene] + O=S(=O)([N-]S(=O)(=O)C(F)(F)F)C(F)(F)F.O=S(=O)([N-]S(=O)(=O)C(F)(F)F)C(F)(F)F.O=S(=O)([N-]S(=O)(=O)C(F)(F)F)C(F)(F)F.c1ccc2cc(-n3cc[n+](Cc4cc(C[n+]5ccn(-c6ccc7ccccc7c6)c5)cc(C[n+]5ccn(-c6ccc7ccccc7c6)c5)c4)c3)ccc2c1 | 3.42 ± 0.42 | 2.31 ± 0.31 | 1.52 ± 0.19 | 1.26 ± 0.14
4 | Cc1ccc(C)cc1 [1,4-dimethylbenzene] + O=S(=O)([N-]S(=O)(=O)C(F)(F)F)C(F)(F)F.O=S(=O)([N-]S(=O)(=O)C(F)(F)F)C(F)(F)F.O=S(=O)([N-]S(=O)(=O)C(F)(F)F)C(F)(F)F.c1ccc2cc(-n3cc[n+](Cc4cc(C[n+]5ccn(-c6ccc7ccccc7c6)c5)cc(C[n+]5ccn(-c6ccc7ccccc7c6)c5)c4)c3)ccc2c1 | 4.47 ± 0.56 | 2.94 ± 0.39 | 2.09 ± 0.26 | 1.51 ± 0.2
5 | C1COCCO1 [1,4-dioxane] + O=S(=O)([N-]S(=O)(=O)C(F)(F)F)C(F)(F)F.O=S(=O)([N-]S(=O)(=O)C(F)(F)F)C(F)(F)F.O=S(=O)([N-]S(=O)(=O)C(F)(F)F)C(F)(F)F.c1ccc2cc(-n3cc[n+](Cc4cc(C[n+]5ccn(-c6ccc7ccccc7c6)c5)cc(C[n+]5ccn(-c6ccc7ccccc7c6)c5)c4)c3)ccc2c1 | 0.481 ± 0.06 | 0.34 ± 0.047 | 0.276 ± 0.038 | 0.262 ± 0.037
6 | CC#N [acetonitrile] + O=S(=O)([N-]S(=O)(=O)C(F)(F)F)C(F)(F)F.O=S(=O)([N-]S(=O)(=O)C(F)(F)F)C(F)(F)F.O=S(=O)([N-]S(=O)(=O)C(F)(F)F)C(F)(F)F.c1ccc2cc(-n3cc[n+](Cc4cc(C[n+]5ccn(-c6ccc7ccccc7c6)c5)cc(C[n+]5ccn(-c6ccc7ccccc7c6)c5)c4)c3)ccc2c1 | 0.263 ± 0.038 | 0.217 ± 0.035 | 0.189 ± 0.033 | 0.181 ± 0.032
7 | O=Cc1ccccc1 [benzaldehyde] + O=S(=O)([N-]S(=O)(=O)C(F)(F)F)C(F)(F)F.O=S(=O)([N-]S(=O)(=O)C(F)(F)F)C(F)(F)F.O=S(=O)([N-]S(=O)(=O)C(F)(F)F)C(F)(F)F.c1ccc2cc(-n3cc[n+](Cc4cc(C[n+]5ccn(-c6ccc7ccccc7c6)c5)cc(C[n+]5ccn(-c6ccc7ccccc7c6)c5)c4)c3)ccc2c1 | 1 ± 0.1 | 0.999 ± 0.1 | 1 ± 0.1 | 1 ± 0.1
8 | c1ccccc1 [benzene] + O=S(=O)([N-]S(=O)(=O)C(F)(F)F)C(F)(F)F.O=S(=O)([N-]S(=O)(=O)C(F)(F)F)C(F)(F)F.O=S(=O)([N-]S(=O)(=O)C(F)(F)F)C(F)(F)F.c1ccc2cc(-n3cc[n+](Cc4cc(C[n+]5ccn(-c6ccc7ccccc7c6)c5)cc(C[n+]5ccn(-c6ccc7ccccc7c6)c5)c4)c3)ccc2c1 | 2.58 ± 0.3 | 1.88 ± 0.23 | 1.35 ± 0.17 | 0.994 ± 0.12
9 | CCCC=O [butanal] + O=S(=O)([N-]S(=O)(=O)C(F)(F)F)C(F)(F)F.O=S(=O)([N-]S(=O)(=O)C(F)(F)F)C(F)(F)F.O=S(=O)([N-]S(=O)(=O)C(F)(F)F)C(F)(F)F.c1ccc2cc(-n3cc[n+](Cc4cc(C[n+]5ccn(-c6ccc7ccccc7c6)c5)cc(C[n+]5ccn(-c6ccc7ccccc7c6)c5)c4)c3)ccc2c1 | 0.425 ± 0.049 | 0.415 ± 0.048 | 0.396 ± 0.047 | 0.324 ± 0.043
10 | C1CCCCC1 [cyclohexane] + O=S(=O)([N-]S(=O)(=O)C(F)(F)F)C(F)(F)F.O=S(=O)([N-]S(=O)(=O)C(F)(F)F)C(F)(F)F.O=S(=O)([N-]S(=O)(=O)C(F)(F)F)C(F)(F)F.c1ccc2cc(-n3cc[n+](Cc4cc(C[n+]5ccn(-c6ccc7ccccc7c6)c5)cc(C[n+]5ccn(-c6ccc7ccccc7c6)c5)c4)c3)ccc2c1 | 11.7 ± 1.3 | 9.16 ± 1 | 8.09 ± 0.9 | 6.25 ± 0.75
11 | O=C1CCCCC1 [cyclohexanone] + O=S(=O)([N-]S(=O)(=O)C(F)(F)F)C(F)(F)F.O=S(=O)([N-]S(=O)(=O)C(F)(F)F)C(F)(F)F.O=S(=O)([N-]S(=O)(=O)C(F)(F)F)C(F)(F)F.c1ccc2cc(-n3cc[n+](Cc4cc(C[n+]5ccn(-c6ccc7ccccc7c6)c5)cc(C[n+]5ccn(-c6ccc7ccccc7c6)c5)c4)c3)ccc2c1 | 1 ± 0.1 | 0.999 ± 0.1 | 1 ± 0.1 | 1 ± 0.1
12 | O=C1CCCC1 [cyclopentanone] + O=S(=O)([N-]S(=O)(=O)C(F)(F)F)C(F)(F)F.O=S(=O)([N-]S(=O)(=O)C(F)(F)F)C(F)(F)F.O=S(=O)([N-]S(=O)(=O)C(F)(F)F)C(F)(F)F.c1ccc2cc(-n3cc[n+](Cc4cc(C[n+]5ccn(-c6ccc7ccccc7c6)c5)cc(C[n+]5ccn(-c6ccc7ccccc7c6)c5)c4)c3)ccc2c1 | 0.303 ± 0.039 | 0.296 ± 0.04 | 0.22 ± 0.035 | 0.211 ± 0.034
13 | CCO [ethanol] + O=S(=O)([N-]S(=O)(=O)C(F)(F)F)C(F)(F)F.O=S(=O)([N-]S(=O)(=O)C(F)(F)F)C(F)(F)F.O=S(=O)([N-]S(=O)(=O)C(F)(F)F)C(F)(F)F.c1ccc2cc(-n3cc[n+](Cc4cc(C[n+]5ccn(-c6ccc7ccccc7c6)c5)cc(C[n+]5ccn(-c6ccc7ccccc7c6)c5)c4)c3)ccc2c1 | 0.927 ± 0.1 | 0.724 ± 0.082 | 0.611 ± 0.066 | 0.606 ± 0.064
14 | CCOC(C)=O [ethyl acetate] + O=S(=O)([N-]S(=O)(=O)C(F)(F)F)C(F)(F)F.O=S(=O)([N-]S(=O)(=O)C(F)(F)F)C(F)(F)F.O=S(=O)([N-]S(=O)(=O)C(F)(F)F)C(F)(F)F.c1ccc2cc(-n3cc[n+](Cc4cc(C[n+]5ccn(-c6ccc7ccccc7c6)c5)cc(C[n+]5ccn(-c6ccc7ccccc7c6)c5)c4)c3)ccc2c1 | 1.02 ± 0.11 | 0.776 ± 0.093 | 0.544 ± 0.068 | 0.443 ± 0.054
15 | CCCCCCC [heptane] + O=S(=O)([N-]S(=O)(=O)C(F)(F)F)C(F)(F)F.O=S(=O)([N-]S(=O)(=O)C(F)(F)F)C(F)(F)F.O=S(=O)([N-]S(=O)(=O)C(F)(F)F)C(F)(F)F.c1ccc2cc(-n3cc[n+](Cc4cc(C[n+]5ccn(-c6ccc7ccccc7c6)c5)cc(C[n+]5ccn(-c6ccc7ccccc7c6)c5)c4)c3)ccc2c1 | 12.2 ± 1.3 | 10.1 ± 1.2 | 6.77 ± 0.82 | 6.03 ± 0.65
16 | CCCCCCCC [octane] + O=S(=O)([N-]S(=O)(=O)C(F)(F)F)C(F)(F)F.O=S(=O)([N-]S(=O)(=O)C(F)(F)F)C(F)(F)F.O=S(=O)([N-]S(=O)(=O)C(F)(F)F)C(F)(F)F.c1ccc2cc(-n3cc[n+](Cc4cc(C[n+]5ccn(-c6ccc7ccccc7c6)c5)cc(C[n+]5ccn(-c6ccc7ccccc7c6)c5)c4)c3)ccc2c1 | 28.4 ± 3.5 | 19.4 ± 2.5 | 14.1 ± 1.8 | 9.43 ± 1.4
17 | CCCC(C)=O [pentan-2-one] + O=S(=O)([N-]S(=O)(=O)C(F)(F)F)C(F)(F)F.O=S(=O)([N-]S(=O)(=O)C(F)(F)F)C(F)(F)F.O=S(=O)([N-]S(=O)(=O)C(F)(F)F)C(F)(F)F.c1ccc2cc(-n3cc[n+](Cc4cc(C[n+]5ccn(-c6ccc7ccccc7c6)c5)cc(C[n+]5ccn(-c6ccc7ccccc7c6)c5)c4)c3)ccc2c1 | 0.54 ± 0.062 | 0.441 ± 0.053 | 0.365 ± 0.045 | 0.341 ± 0.042
18 | CCCO [propan-1-ol] + O=S(=O)([N-]S(=O)(=O)C(F)(F)F)C(F)(F)F.O=S(=O)([N-]S(=O)(=O)C(F)(F)F)C(F)(F)F.O=S(=O)([N-]S(=O)(=O)C(F)(F)F)C(F)(F)F.c1ccc2cc(-n3cc[n+](Cc4cc(C[n+]5ccn(-c6ccc7ccccc7c6)c5)cc(C[n+]5ccn(-c6ccc7ccccc7c6)c5)c4)c3)ccc2c1 | 1.4 ± 0.16 | 1.1 ± 0.13 | 0.842 ± 0.094 | 0.73 ± 0.079
19 | CC(C)O [propan-2-ol] + O=S(=O)([N-]S(=O)(=O)C(F)(F)F)C(F)(F)F.O=S(=O)([N-]S(=O)(=O)C(F)(F)F)C(F)(F)F.O=S(=O)([N-]S(=O)(=O)C(F)(F)F)C(F)(F)F.c1ccc2cc(-n3cc[n+](Cc4cc(C[n+]5ccn(-c6ccc7ccccc7c6)c5)cc(C[n+]5ccn(-c6ccc7ccccc7c6)c5)c4)c3)ccc2c1 | 1.89 ± 0.24 | 1.24 ± 0.16 | 0.965 ± 0.11 | 0.693 ± 0.091
20 | c1ccncc1 [pyridine] + O=S(=O)([N-]S(=O)(=O)C(F)(F)F)C(F)(F)F.O=S(=O)([N-]S(=O)(=O)C(F)(F)F)C(F)(F)F.O=S(=O)([N-]S(=O)(=O)C(F)(F)F)C(F)(F)F.c1ccc2cc(-n3cc[n+](Cc4cc(C[n+]5ccn(-c6ccc7ccccc7c6)c5)cc(C[n+]5ccn(-c6ccc7ccccc7c6)c5)c4)c3)ccc2c1 |  | 0.164 ± 0.031 | 0.173 ± 0.032 | 0.198 ± 0.033
